Values after ≈ are worked out from the molar mass of the structure shown. Where two headings read alike, the source gives them in different places.
Key:
CHI Log D procedure = format: physicochemical; conditions: for chromatographic logD: pH 7.4, CHI Log D; for CHI Log D: pH 7.4
[1] = biological target: T1, full-length beta-Catenin (Uniprot ID P35222) (Homo sapiens, UniProt P35222); experiment: Fluorescence polarization IC50 (beta-catenin / 5FAM-TCF4 10-53 competition); format: binding
T1 construct: 10 nM full-length beta-Catenin (Uniprot ID P35222)
T1 sequence (P35222 1-781): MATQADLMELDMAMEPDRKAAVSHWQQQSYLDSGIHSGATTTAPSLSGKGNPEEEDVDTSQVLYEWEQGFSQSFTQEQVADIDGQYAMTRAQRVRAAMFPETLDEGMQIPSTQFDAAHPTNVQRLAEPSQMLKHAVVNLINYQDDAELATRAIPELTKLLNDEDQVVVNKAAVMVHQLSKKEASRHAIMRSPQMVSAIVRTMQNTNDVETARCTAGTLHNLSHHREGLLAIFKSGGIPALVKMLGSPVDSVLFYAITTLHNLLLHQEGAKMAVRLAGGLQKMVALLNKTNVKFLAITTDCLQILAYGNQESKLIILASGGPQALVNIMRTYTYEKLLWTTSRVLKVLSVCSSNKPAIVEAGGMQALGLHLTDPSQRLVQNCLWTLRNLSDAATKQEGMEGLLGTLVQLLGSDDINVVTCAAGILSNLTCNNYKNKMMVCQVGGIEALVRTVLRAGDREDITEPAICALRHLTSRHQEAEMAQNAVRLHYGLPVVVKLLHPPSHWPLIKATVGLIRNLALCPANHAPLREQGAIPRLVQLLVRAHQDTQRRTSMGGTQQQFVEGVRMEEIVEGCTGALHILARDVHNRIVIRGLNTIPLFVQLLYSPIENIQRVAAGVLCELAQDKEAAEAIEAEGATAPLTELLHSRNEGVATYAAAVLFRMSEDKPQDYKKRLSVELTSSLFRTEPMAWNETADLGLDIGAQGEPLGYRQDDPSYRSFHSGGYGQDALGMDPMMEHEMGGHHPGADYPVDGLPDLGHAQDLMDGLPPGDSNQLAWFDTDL

Solubility in PBS = format: physicochemical
How it was run: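 The PBS solution was ultracentrifuged and the supernatant analyzed by HPLC. Its peak area was divided by that of a 50 μM peptide DMSO reference injection and multiplied by 50 uM to give solubility.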

[2] = fluorescence polarization, read-out: beta-Catenin FP IC50
[3] = fluorescence polarization, beta-catenin, read-out: FP EC50

Row | SMILES | chromatographic logD (CHI Log D procedure) | IC50 [1, 2] [nM] | Solubility (Solubility in PBS; Solubility (uM)) [µM] | CHI Log D (CHI Log D procedure) | IC50 [1, 3] [nM] | IC50 ([1]; read-out: beta-Catenin FP IC50) [nM] | Solubility (Solubility in PBS) [µM] | IC50 ([1]; read-out: FP EC50) [nM] | IC50 ([1]; Table E2-1, read-out: beta-Catenin FP IC50) [nM]
1 | CC(=O)N1CCC[C@]12CC=CCCCC1(CCCC=CCCCCCC[C@@](C)(C(=O)N[C@@H](Cc3ccccc3)C(=O)N[C@@H](Cc3csc4ccccc34)C(N)=O)NC(=O)[C@H](CC(N)=O)NC(=O)[C@H](Cc3ccccc3)NC(=O)[C@H](C)NC(=O)[C@H](C)NC(=O)[C@H](CCC(=O)O)NC(=O)[C@H](CC(=O)O)NC1=O)NC(=O)[C@H](C)NC(=O)[C@H](CC(=O)O)NC2=O (stereo partly drawn) [I-432, Ac-PL3-Asp-Ala-B5-Asp-Glu-Ala-Ala-Phe-Asn-S8-Phe-BztA-NH2] | 2.23 | 145 | 23 (≈ 39.1 µg/mL) | – | – | – | – | – | –
2 | CC(=O)N1CCC[C@]12CC=CCCCC1(CCCC=CCCCCCC[C@@](C)(C(=O)N[C@@H](Cc3ccccc3)C(=O)N[C@@H](Cc3csc4ccccc34)C(=O)N[C@@H](CCC(N)=O)C(N)=O)NC(=O)[C@H](CC(N)=O)NC(=O)[C@H](Cc3ccccc3)NC(=O)[C@H](C)NC(=O)[C@H](C)NC(=O)[C@H](CC(=O)O)NC(=O)[C@H](Cc3nn[nH]n3)NC1=O)NC(=O)[C@H](C)NC(=O)[C@H](CC(=O)O)NC2=O (stereo partly drawn) [I-445, Ac-PL3-Asp-Ala-B5-Tetz-Asp-Ala-Ala-Phe-Asn-S8-Phe-BztA-Gln-NH2] | 2.05 | 4960 | 43 (≈ 79 µg/mL) | – | – | – | – | – | –
3 | CCN(CC(=O)O)C[C@@H]1NC(=O)[C@H](CC(=O)O)NC(=O)C2(CCCC=CCCCOC(=O)N3CC[C@@](C(=O)N[C@@H](Cc4ccsc4)C(=O)N[C@@H](Cc4csc5ccccc45)C(=O)N[C@@H](CCC(N)=O)C(N)=O)(C3)NC(=O)[C@H]([C@@H](C)O)NC(=O)[C@H](Cc3ccccc3)NC(=O)[C@H](C)NC(=O)[C@H](C)NC1=O)CCCC=CC[C@]1(CCCN1C(C)=O)C(=O)N[C@@H](CC(=O)O)C(=O)N[C@@H](CC(C)(C)C)C(=O)N2 (stereo partly drawn) [I-969, Ac-PL3-Asp-Npg-B5-Asp-EtGA-Ala-Ala-Phe-Thr-PyrS2-3Thi-BztA-Gln-NH2] | – | – | – | 1.851 | 2320 | 2320 | 46 (≈ 90.3 µg/mL) | – | –
4 | CC(=O)N1CCC[C@]12CC=CCCCC1(CCCC=CCCCOC(=O)N3CC[C@@](C(=O)N[C@@H](Cc4ccccc4F)C(=O)N[C@@H](Cc4csc5ccccc45)C(=O)N[C@@H](CO)C(N)=O)(C3)NC(=O)[C@H]([C@@H](C)O)NC(=O)[C@H](Cc3ccccc3)NC(=O)[C@H](C)NC(=O)[C@H](C)NC(=O)[C@H](CC(N)=O)NC(=O)[C@H](CC(=O)O)NC1=O)NC(=O)[C@H](CC(C)(C)C)NC(=O)[C@H](CC(=O)O)NC2=O (stereo partly drawn) [I-1024, Ac-PL3-Asp-Npg-B5-Asp-Asn-Ala-Ala-Phe-Thr-PyrS2-2FF-BztA-Ser-NH2] | 2.45 | – | 14 (≈ 26.3 µg/mL) | – | – | 43 | – | – | –
5 | CC(=O)N1CCC[C@]12CC=CCCCC1(CCCC=CCCCCCC[C@@](C)(C(=O)N[C@@H](Cc3ccccc3)C(=O)N[C@@H](Cc3csc4ccccc34)C(=O)N[C@@H](Cc3c[nH]cn3)C(=O)NC(C)(C)C(N)=O)NC(=O)[C@H](CC(N)=O)NC(=O)[C@H](Cc3ccccc3)NC(=O)[C@H](C)NC(=O)[C@H](C)NC(=O)[C@H](CCC(=O)O)NC(=O)[C@H](CC(=O)O)NC1=O)NC(=O)[C@H](CC(C)C)NC(=O)[C@H](CC(=O)O)NC2=O (stereo partly drawn) [I-743, Ac-PL3-Asp-Leu-B5-Asp-Glu-Ala-Ala-Phe-Asn-S8-Phe-BztA-His-Aib-NH2] | 2.6 | 85 | 29 (≈ 56.9 µg/mL) | – | – | – | – | – | –
6 | CC(=O)N1CCC[C@]12CC=CCCCC1(CCCC=CCCCCCC[C@@](C)(C(=O)N[C@@H](Cc3ccccc3)C(=O)N[C@@H](Cc3csc4ccccc34)C(=O)N[C@@H](CCC(N)=O)C(N)=O)NC(=O)[C@H](C)NC(=O)[C@H](Cc3cccc(C(F)(F)F)c3)NC(=O)[C@H](C)NC(=O)[C@H](C)NC(=O)[C@H](CC(=O)O)NC(=O)[C@H](CC(=O)O)NC1=O)NC(=O)[C@H](C)NC(=O)[C@H](CC(=O)O)NC2=O (stereo partly drawn) [I-377, Ac-PL3-Asp-Ala-B5-Asp-Asp-Ala-Ala-3F3MeF-Ala-S8-Phe-BztA-Gln-NH2] | – | – | – | 2.296 | 1320 | – | 48 (≈ 88.2 µg/mL) | – | –
7 | CC[C@H](C)[C@@H]1NC(=O)[C@H](CC(=O)O)NC(=O)[C@]2(CC=CCCCC3(CCCC=CCCCCCC[C@@](C)(C(=O)N[C@@H](Cc4ccccc4)C(=O)N[C@@H](Cc4csc5ccccc45)C(=O)N[C@@H](CCC(N)=O)C(N)=O)NC(=O)[C@H](CCC(N)=O)NC(=O)[C@H](Cc4ccccc4)NC(=O)[C@H](C)NC(=O)[C@H](CCC(N)=O)NC(=O)[C@H](CCC(=O)O)NC(=O)[C@H](CC(=O)O)NC3=O)NC1=O)CCCN2C(C)=O (stereo partly drawn) [I-653, Ac-PL3-Asp-Ile-B5-Asp-Glu-Gln-Ala-Phe-Gln-S8-Phe-BztA-Gln-NH2] | – | 108 | – | 2.07 | – | – | 39 (≈ 75.7 µg/mL) | 108 | –
8 | CC[C@H](C)[C@@H]1NC(=O)[C@H](CC(=O)O)NC(=O)[C@]2(CC=CCCCC3(CCCC=CCCCCCC[C@@](C)(C(=O)N[C@@H](Cc4ccccc4)C(=O)N[C@@H](Cc4csc5ccccc45)C(=O)N[C@@H](CCC(N)=O)C(N)=O)NC(=O)[C@H](CCC(N)=O)NC(=O)[C@H](Cc4ccccc4)NC(=O)[C@H](CO)NC(=O)[C@H](C)NC(=O)[C@H](CCC(=O)O)NC(=O)[C@H](CC(=O)O)NC3=O)NC1=O)CCCN2C(C)=O (stereo partly drawn) [I-661, Ac-PL3-Asp-Ile-B5-Asp-Glu-Ala-Ser-Phe-Gln-S8-Phe-BztA-Gln-NH2] | – | 45 | – | 2.099 | – | – | 45 (≈ 85.5 µg/mL) | 45 | –
9 | CC(=O)N1CCC[C@]12CC=CCCCC1(CCCC=CCCCCCC[C@@](C)(C(=O)N[C@@H](Cc3ccccc3)C(=O)N[C@@H](Cc3csc4ccccc34)C(=O)N[C@@H](CCC(N)=O)C(N)=O)NC(=O)[C@H](C)NC(=O)[C@H](Cc3cccc(C(F)(F)F)c3)NC(=O)[C@H](C)NC(=O)[C@H](C)NC(=O)[C@H](CC(=O)O)NC(=O)[C@H](CC(=O)O)NC1=O)NC(=O)[C@H](C)NC(=O)[C@H](CC(=O)O)NC2=O (stereo partly drawn) [I-375, Ac-PL3-Asp-Ala-B5-Asp-Asp-Ala-Ala-3F3MeF-Ala-S8-Phe-BztA-Gln-NH2] | – | – | – | 2.242 | 3010 | – | 49 (≈ 90.1 µg/mL) | – | –
10 | CC(=O)N1CCC[C@]12CC=CCCCC1(CCCC=CCCCCCC[C@@](C)(C(=O)N[C@@H](Cc3ccccc3)C(=O)N[C@@H](Cc3c[nH]c4ccccc34)C(=O)N[C@@H](CCC(N)=O)C(N)=O)NC(=O)[C@H](C(C)C)NC(=O)[C@H](Cc3ccccc3)NC(=O)[C@H](C)NC(=O)[C@H](C)NC(=O)[C@H](Cc3c[nH]cn3)NC(=O)[C@H](CC(=O)O)NC1=O)NC(=O)[C@H](C)NC(=O)[C@H](CC(=O)O)NC2=O (stereo partly drawn) [I-305, Ac-PL3-Asp-Ala-B5-Asp-His-Ala-Ala-Phe-Val-S8-Phe-Trp-Gln-NH2] | – | – | – | 2.348 | 3980 | – | 10 (≈ 18 µg/mL) | – | 3980
11 | CC[C@H](C)[C@@H]1NC(=O)[C@H](CC(=O)O)NC(=O)[C@]2(CC=CCCCC3(CCCC=CCCCCCC[C@@](C)(C(=O)N[C@@H](Cc4ccccc4)C(=O)N[C@@H](Cc4csc5ccccc45)C(=O)N[C@@H](CCC(N)=O)C(N)=O)NC(=O)[C@H](CCC(N)=O)NC(=O)[C@H](Cc4ccccc4)NC(=O)[C@H](C)NC(=O)[C@H](CC(C)C)NC(=O)[C@H](CCC(=O)O)NC(=O)[C@H](CC(=O)O)NC3=O)NC1=O)CCCN2C(C)=O (stereo partly drawn) [I-647, Ac-PL3-Asp-Ile-B5-Asp-Glu-Leu-Ala-Phe-Gln-S8-Phe-BztA-Gln-NH2] | – | 445 | – | 2.677 | – | – | 50 (≈ 96.3 µg/mL) | 445 | –
